One assay relates to E. coli (ATCC 35150). Description: E. coli viability on spinach leaves after plasma-activated mist exposure. It counts as cell-based. The note with it: no plasma mist. The procedure:
E. coli (ATCC 35150) cultures were grown to stationary phase in tryptic soy broth (TSB; Difco, Becton Dickinson, Franklin Lakes, N.J.). Aliquots of the prepared cultures were mixed into a volume of sterile Milli-Q water (Millipore, Billerica, Mass.) that yields an overall bacterial inoculum percentage of 2%. Thirty microliter aliquots of the bacterial culture were used to spot inoculate regions on the leaf surface of each leaf sample. Cultures were air dried on the leaf samples for 1 hour.
An Ultrasonic 360 humidifier (Safety 1st; Columbus, Ind.) was connected to plastic tubing and fed into a custom small-scale plasma generator. The plasma configuration consisted of two parallel brass plate electrodes that have an area of 40 mm×45 mm and thickness of 5 mm. Polyetherimide was used as the housing material for the electrodes. The upper electrode was connected to a high voltage power supply (1-20 kV) with operating parameters that can be adjusted while the lower electrode is grounded. The adjustable outlet of the setup released plasma-activated water mist onto inoculated leaves fixed 2 mm beneath the opening. Plasma-activated water mist was applied to the inoculated leaves at intervals from 15 seconds to 2 minutes. […]
Bacterial viability was […]. […] Data was analyzed using GraphPad Prism and InStat graphical and statistical software (GraphPad Software, Inc., La Jolla, Calif.). […]

A further assay concerns S. aureus. As to the kind of experiment: S. aureus viability on spinach leaves after plasma-activated mist exposure. The format is cell-based. Conditions: no plasma mist.

This is an account of results in patent US20160015038A1, “TREATED CROP PLANTS OR PLANT FOOD PRODUCTS WITH DECREASED BACTERIAL VIABILITY AND METHODS AND APPARATUSES FOR MAKING THE SAME” (EP Technologies LLC, priority 2014, published 2016).

Bounds are passed on as bounds.

Consider `O=CC=Cc1ccccc1` [cinnamaldehyde], for which the “log10 reduction of E. coli caused by additive alone” value in the assay with E. coli (ATCC 35150) is recorded as < 0.4. The “log10 reduction of S. aureus caused by additive alone” value with S. aureus is “less than 0.2”.
